Source: publication PMC3961306, “Comparison of the Cancer Gene Targeting and Biochemical Selectivities of All Targeted Kinase Inhibitors Approved for Clinical Use” (PLoS ONE, 2014)

Tests used:
Assay in all cases: Kinase profiling in a biochemical assay panel (mobility shift assays and ELISA), %-inhibition at 1 μM; selectivity entropy
[1] = target: panel of more than 300 wild-type and mutant kinases (313 kinase panel) (Homo sapiens, UniProt P35916)
[2] = target: panel of more than 300 wild-type and mutant kinases (313 kinase panel) (Homo sapiens, UniProt Q02763)
Chain of panel of more than 300 wild-type and mutant kinases (313 kinase panel) (Homo sapiens, UniProt Q02763) (Q02763 23-1124, change not shown): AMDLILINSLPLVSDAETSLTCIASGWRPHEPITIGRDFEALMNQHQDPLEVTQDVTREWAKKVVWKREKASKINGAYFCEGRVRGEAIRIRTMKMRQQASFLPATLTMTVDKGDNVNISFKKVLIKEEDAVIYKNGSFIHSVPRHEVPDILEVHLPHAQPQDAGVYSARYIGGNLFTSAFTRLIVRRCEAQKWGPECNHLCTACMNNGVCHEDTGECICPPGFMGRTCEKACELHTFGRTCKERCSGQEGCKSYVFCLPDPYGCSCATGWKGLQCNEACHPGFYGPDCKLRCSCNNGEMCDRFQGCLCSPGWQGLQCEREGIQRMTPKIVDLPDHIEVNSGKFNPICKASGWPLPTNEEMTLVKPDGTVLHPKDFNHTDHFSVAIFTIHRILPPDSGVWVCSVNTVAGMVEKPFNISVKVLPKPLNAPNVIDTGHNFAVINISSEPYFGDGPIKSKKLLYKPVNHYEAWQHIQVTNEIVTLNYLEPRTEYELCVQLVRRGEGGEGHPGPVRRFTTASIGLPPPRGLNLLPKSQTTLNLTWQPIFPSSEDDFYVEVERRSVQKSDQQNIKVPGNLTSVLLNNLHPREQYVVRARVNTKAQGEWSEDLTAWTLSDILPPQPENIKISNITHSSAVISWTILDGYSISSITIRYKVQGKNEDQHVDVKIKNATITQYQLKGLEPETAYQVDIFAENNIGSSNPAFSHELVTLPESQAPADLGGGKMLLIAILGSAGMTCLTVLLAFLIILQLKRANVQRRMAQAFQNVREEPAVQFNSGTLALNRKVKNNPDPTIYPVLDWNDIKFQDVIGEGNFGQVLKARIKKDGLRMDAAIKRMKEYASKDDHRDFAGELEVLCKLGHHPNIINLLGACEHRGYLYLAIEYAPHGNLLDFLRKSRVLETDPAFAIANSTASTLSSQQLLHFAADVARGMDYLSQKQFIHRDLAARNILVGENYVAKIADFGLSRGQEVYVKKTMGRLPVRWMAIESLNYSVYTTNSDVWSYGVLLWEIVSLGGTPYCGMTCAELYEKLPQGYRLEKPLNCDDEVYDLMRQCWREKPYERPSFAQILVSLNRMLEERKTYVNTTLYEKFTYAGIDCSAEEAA

[3] = target: panel of more than 300 wild-type and mutant kinases (313 kinase panel) (Homo sapiens, UniProt Q05655)
[4] = target: panel of more than 300 wild-type and mutant kinases (313 kinase panel) (Homo sapiens, UniProt Q13464)
[5] = target: T1, panel of more than 300 wild-type and mutant kinases (313 kinase panel) (Homo sapiens, UniProt Q8NE63)
T1 sequence (Q8NE63 1-616): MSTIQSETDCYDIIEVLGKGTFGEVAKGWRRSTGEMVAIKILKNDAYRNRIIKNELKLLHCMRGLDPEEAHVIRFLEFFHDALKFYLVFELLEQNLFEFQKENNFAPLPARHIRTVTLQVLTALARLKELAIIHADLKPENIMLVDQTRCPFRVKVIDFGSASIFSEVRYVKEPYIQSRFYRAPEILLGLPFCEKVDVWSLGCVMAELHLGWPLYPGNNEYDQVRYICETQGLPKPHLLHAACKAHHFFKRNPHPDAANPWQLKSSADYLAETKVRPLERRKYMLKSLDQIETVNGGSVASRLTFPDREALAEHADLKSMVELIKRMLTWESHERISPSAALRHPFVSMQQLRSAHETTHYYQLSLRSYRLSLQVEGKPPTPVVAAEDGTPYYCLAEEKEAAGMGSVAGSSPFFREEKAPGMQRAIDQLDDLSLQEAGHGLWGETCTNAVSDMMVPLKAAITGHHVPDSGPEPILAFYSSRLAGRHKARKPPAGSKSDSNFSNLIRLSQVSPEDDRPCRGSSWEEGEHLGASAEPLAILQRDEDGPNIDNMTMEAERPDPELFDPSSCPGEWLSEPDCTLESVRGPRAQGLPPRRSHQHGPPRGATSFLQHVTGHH

[6] = target: T2, panel of more than 300 wild-type and mutant kinases (313 kinase panel) (Homo sapiens, UniProt Q8TDC3)
T2 sequence (Q8TDC3 1-778): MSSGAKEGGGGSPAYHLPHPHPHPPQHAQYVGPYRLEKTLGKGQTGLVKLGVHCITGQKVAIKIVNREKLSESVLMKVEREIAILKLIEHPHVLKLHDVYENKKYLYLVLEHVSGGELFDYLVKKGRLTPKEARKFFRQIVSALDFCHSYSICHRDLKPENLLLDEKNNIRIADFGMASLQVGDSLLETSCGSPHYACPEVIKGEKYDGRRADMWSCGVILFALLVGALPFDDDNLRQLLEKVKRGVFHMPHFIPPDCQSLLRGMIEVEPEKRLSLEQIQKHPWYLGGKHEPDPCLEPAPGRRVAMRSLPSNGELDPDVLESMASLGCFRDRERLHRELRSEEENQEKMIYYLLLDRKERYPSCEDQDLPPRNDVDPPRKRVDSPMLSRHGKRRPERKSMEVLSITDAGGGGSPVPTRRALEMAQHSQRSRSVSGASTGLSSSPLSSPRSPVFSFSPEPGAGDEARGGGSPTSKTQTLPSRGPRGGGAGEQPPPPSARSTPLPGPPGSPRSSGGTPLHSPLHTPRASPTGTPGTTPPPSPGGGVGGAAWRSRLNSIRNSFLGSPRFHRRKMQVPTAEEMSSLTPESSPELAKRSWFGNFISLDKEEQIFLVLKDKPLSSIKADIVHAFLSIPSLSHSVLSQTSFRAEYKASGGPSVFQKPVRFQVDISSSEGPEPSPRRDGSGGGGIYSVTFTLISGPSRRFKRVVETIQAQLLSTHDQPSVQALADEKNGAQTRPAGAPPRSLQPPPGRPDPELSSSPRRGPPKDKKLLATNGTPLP

[7] = target: T3, panel of more than 300 wild-type and mutant kinases (313 kinase panel) (Homo sapiens, UniProt Q9H093)
T3 sequence (Q9H093 1-628): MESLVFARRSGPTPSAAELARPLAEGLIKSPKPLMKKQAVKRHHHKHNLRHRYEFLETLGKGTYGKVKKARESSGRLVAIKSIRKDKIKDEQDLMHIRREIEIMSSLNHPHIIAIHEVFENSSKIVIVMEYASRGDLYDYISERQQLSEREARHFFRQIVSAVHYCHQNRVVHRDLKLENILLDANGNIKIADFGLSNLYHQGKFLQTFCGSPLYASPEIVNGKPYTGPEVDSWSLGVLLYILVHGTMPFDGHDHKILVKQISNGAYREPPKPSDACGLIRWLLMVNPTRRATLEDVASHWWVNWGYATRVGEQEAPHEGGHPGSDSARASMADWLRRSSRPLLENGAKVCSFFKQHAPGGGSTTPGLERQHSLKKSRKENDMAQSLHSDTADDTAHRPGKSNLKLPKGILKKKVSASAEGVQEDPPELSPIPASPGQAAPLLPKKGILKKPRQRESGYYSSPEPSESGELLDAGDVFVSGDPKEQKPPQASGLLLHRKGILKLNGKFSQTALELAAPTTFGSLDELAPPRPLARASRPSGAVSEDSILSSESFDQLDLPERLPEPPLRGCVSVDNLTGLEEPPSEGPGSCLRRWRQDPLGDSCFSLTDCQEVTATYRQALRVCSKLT

[8] = target: panel of more than 300 wild-type and mutant kinases (313 kinase panel) (Homo sapiens, UniProt Q9H4A3)
Chain of panel of more than 300 wild-type and mutant kinases (313 kinase panel) (Homo sapiens, UniProt Q9H4A3) (Q9H4A3 whole entry, change not shown): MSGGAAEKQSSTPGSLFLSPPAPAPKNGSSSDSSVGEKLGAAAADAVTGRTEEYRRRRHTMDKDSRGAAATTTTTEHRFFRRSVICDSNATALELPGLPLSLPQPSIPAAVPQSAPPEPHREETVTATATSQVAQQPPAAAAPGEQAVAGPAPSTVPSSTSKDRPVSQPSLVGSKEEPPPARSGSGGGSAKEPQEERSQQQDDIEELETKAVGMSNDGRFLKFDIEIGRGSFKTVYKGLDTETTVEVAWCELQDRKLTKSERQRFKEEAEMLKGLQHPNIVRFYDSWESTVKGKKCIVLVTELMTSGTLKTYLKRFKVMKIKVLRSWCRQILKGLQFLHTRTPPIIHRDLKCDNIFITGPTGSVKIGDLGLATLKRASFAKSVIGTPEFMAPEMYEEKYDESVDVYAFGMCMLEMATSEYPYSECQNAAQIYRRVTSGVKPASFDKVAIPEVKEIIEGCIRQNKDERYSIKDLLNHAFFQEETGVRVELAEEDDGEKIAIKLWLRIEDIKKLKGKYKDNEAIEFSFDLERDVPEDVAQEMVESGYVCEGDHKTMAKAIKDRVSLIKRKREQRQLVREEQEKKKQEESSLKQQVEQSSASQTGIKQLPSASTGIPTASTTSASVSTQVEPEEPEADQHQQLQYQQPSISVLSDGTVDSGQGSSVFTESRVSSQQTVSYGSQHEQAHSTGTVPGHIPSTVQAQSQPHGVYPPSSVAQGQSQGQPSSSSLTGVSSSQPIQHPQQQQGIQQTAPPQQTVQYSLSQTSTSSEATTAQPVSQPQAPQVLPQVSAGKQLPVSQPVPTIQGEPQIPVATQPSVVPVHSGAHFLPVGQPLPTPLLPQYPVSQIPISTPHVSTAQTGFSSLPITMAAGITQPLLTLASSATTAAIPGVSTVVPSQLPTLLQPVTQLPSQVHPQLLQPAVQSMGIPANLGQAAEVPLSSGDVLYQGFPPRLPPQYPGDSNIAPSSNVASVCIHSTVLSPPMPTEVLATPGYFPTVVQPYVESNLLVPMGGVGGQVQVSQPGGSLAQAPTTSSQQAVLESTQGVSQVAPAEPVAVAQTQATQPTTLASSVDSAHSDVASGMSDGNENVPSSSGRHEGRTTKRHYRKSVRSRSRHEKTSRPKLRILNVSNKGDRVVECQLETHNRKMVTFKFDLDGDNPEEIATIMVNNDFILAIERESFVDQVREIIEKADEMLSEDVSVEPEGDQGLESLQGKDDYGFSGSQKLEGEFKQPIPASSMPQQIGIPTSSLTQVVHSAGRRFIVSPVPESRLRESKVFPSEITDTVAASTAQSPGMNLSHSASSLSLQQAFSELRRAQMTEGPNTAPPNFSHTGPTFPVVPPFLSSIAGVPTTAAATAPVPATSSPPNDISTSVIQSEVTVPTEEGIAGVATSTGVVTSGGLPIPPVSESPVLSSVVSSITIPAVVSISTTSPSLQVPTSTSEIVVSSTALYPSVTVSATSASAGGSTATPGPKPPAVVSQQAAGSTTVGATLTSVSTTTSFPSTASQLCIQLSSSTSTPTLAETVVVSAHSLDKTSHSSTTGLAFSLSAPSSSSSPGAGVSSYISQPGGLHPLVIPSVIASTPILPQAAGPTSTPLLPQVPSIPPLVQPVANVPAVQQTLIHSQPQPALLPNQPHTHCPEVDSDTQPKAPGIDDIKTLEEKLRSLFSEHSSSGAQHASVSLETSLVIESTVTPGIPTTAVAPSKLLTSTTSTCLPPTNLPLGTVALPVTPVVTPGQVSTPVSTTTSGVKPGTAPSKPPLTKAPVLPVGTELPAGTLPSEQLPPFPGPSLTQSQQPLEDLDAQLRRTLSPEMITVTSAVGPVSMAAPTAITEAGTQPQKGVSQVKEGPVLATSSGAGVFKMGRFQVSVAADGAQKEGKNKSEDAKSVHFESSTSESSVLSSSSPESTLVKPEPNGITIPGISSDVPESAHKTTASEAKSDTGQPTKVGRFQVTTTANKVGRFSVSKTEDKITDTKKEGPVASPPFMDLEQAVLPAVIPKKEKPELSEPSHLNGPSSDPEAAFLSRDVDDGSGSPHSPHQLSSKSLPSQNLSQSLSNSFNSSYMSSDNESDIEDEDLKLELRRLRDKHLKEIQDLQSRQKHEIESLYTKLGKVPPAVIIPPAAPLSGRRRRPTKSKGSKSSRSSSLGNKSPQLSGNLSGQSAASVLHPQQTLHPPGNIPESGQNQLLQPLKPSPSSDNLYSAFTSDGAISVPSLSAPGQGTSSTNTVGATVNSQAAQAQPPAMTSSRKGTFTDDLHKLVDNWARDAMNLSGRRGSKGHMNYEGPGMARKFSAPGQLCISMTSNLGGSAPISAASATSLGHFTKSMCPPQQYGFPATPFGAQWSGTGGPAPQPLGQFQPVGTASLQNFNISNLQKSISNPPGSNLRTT

[9] = target: panel of more than 300 wild-type and mutant kinases (313 kinase panel) (Homo sapiens, UniProt Q9NQU5)

SMILES	%-inhibition of FLT4 ([1]; 1 µM)	%-inhibition of TIE2 ([2]; kinase TIE2, 1 μM)	%-inhibition of PKCδ ([3]; kinase PKCδ, 1 μM)	%-inhibition of ROCK1 ([4]; 1 µM)	%-inhibition of HIPK4 ([5]; 1 µM)	%-inhibition, BRSK1 ([6]; kinase BRSK1, 1 μM compound)	%-inhibition of NuaK2 ([7]; kinase NuaK2, 1 μM)	%-inhibition of WNK1 ([8]; kinase WNK1, compound at 1 μM)	%-inhibition of PAK6 ([9]; kinase PAK6, 1 μM)	%-inhibition of FLT4 ([1]; kinase FLT4, compound at 1 μM)	%-inhibition of ROCK1 ([4]; kinase ROCK1, 1 μM)	%-inhibition of HIPK4 ([5]; kinase HIPK4, compound at 1 μM)	%-inhibition of TIE2 ([2]; 1 µM)	%-inhibition of PKCδ ([3]; 1 µM)	%-inhibition, BRSK1 ([6]; 1 µM)	%-inhibition of NuaK2 ([7]; 1 µM)	%-inhibition of WNK1 ([8]; 1 µM)	%-inhibition of PAK6 ([9]; 1 µM)
N#CC[C@H](C1CCCC1)n1cc(-c2ncnc3[nH]ccc23)cn1 [ruxolitinib]	36%	3%	2%	66%	3%	-6.38%	41%	-4%	3%	–	–	–	–	–	–	–	–	–
CCCS(=O)(=O)Nc1ccc(F)c(C(=O)c2c[nH]c3ncc(-c4ccc(Cl)cc4)cc23)c1F [vemurafenib]	–	-2.42%	-5%	–	–	-8%	4.36%	10%	-7%	24%	1.28%	-0.437%	–	–	–	–	–	–
COc1cc2c(Nc3ccc(Br)cc3F)ncnc2cc1OCC1CCN(C)CC1 [vandetanib]	–	85%	-5.39%	–	–	-9%	-14%	-2.36%	-5.42%	104%	-0.226%	20%	–	–	–	–	–	–
C#Cc1cccc(Nc2ncnc3cc(OCCOC)c(OCCOC)cc23)c1 [erlotinib]	75%	–	–	1.9%	37%	–	–	–	–	–	–	–	9%	5%	5.68%	-0.531%	1.82%	5%
CNC(=O)c1cc(Oc2ccc(NC(=O)Nc3ccc(Cl)c(C(F)(F)F)c3)c(F)c2)ccn1 [regorafenib]	–	47%	2.2%	–	–	-17%	-24%	-4%	-8%	104%	11%	100%	–	–	–	–	–	–
CO[C@H]1C[C@@H]2CC[C@@H](C)[C@@](O)(O2)C(=O)C(=O)N2CCCC[C@H]2C(=O)O[C@H]([C@H](C)C[C@@H]2CC[C@@H](OC(=O)C(C)(CO)CO)[C@H](OC)C2)CC(=O)[C@H](C)/C=C(\C)[C@@H](O)[C@@H](OC)C(=O)[C@H](C)C[C@H](C)/C=C/C=C/C=C/1C [temsirolimus]	–	-8%	-4%	–	–	-14%	-5.44%	-4.27%	-6.47%	-0.926%	-0.679%	2.19%	–	–	–	–	–	–
Cc1cn(-c2cc(NC(=O)c3ccc(C)c(Nc4nccc(-c5cccnc5)n4)c3)cc(C(F)(F)F)c2)cn1 [nilotinib]	–	41%	–	-17%	–	0.801%	–	-0.88%	–	17%	–	37%	–	-14%	–	-44%	–	-102%
CS(=O)(=O)CCNCc1ccc(-c2ccc3ncnc(Nc4ccc(OCc5cccc(F)c5)c(Cl)c4)c3c2)o1 [lapatinib]	–	2.14%	-1.67%	–	–	2%	-1.19%	-0.825%	0.144%	-2.21%	-2.62%	9%	–	–	–	–	–	–
